“Also recorded” adds a separate entry of the source. One block for each compound: values may come before it.
Legend:
Assay type in all cases: physicochemical
Miscibility in water = experiment: Miscibility in water
Source text: The BDM molecule is produced following the same process as that used in example 1 (without solvents), using pentanal and glycerol. The substance obtained is confirmed by GC-MS analysis. Its water solubility is approximately 2 g in 100 g water. Beyond that, turbidity appears.

[1] = Stability of the pH of an EDM solution; conditions: 5% EDM
Experimental: The stability of solutions at different pHs after adding 5% EDM was studied.
The different solutions were prepared: • using citric acid and Na2HPO4 for pHs between 3 and 7, • using boric acid, KCl and NaOH for pHs between 8 and 10.

[2] = Solubility of EDM in oils, alcohols and water
Source text: 3/ Solubility of EDM in Oils and Alcohols
The solubility of EDM is studied in various oils, alcohols and water. The solubility results are expressed in g of EDM incorporable into 100 g of oil or ester before turbidity appears.

[3] = Solubilisation of non-water soluble active ingredients in water assisted by solvent
Source text: Five hydrophobic active ingredients were solubilised in water using EDM.
The following table indicates what mass of solvent (g) must be added to solubilise 1 g of a mixture comprising 98% water and 2% active ingredient.
The smaller the quantity of solvent to be added, the greater its solubilising power.

[4] = Solubilisation of UV filters with ETP, EDM and PDM; conditions: for Solubility of 1,2-butyl methoxydibenzoylmethane in the solvent: UV filter 1,2-butyl methoxydibenzoylmethane; for Solubility of Benzophenone-3 in the solvent: UV filter Benzophenone-3
Experimental: 4/ Solubilisation of Filters with ETP, EDM and PDM
The solubility of two organic UV filters (benzophenone-3 et 1,2-butyl methoxydibenzoylmethane) are assessed in ETP, EDM and PDM.
• homogenise the mixture for 30 seconds in a vortex mixer, • apply ultrasounds for 15 minutes (repeat if the filter is not miscible up to a maximum of 60 minutes), • for the following percentages, an identical quantity of UV filter is always added to a set initial quantity of solvent.
Solubility is expressed in g of filter soluble in 100 g of final solution.

[5] = Compatibility of EDM with gelling agents
Source text: We tested the influence of 5% EDM in gels produced using gelling agents with different chemical natures.

Solubility in oils = conditions: before turbidity appears
[6] = Solubilisation of active ingredients in EDM; conditions: solubility in EDM
Experimental: 5/ Solubilisation of Active Ingredients in EDM
The solubility of the various active ingredients in EDM was studied. It is expressed in g of active ingredient soluble in 100 ml of EDM.

[7] = buffer solution initial pH 4.25
[8] = buffer solution initial pH 6.15
[9] = buffer solution initial pH 7.15
[10] = buffer solution initial pH 10.0
[11] = active ingredient Bisabolol nat.
[12] = active ingredient Eusolex 4360 (Benzophenone 3)
[13] = active ingredient HE eucalyptus (Eucalyptus globulus leaf oil)
[14] = active ingredient Vitamin E (Tocopherol)

water solubility (Miscibility in water; beyond that, turbidity appears): approximately 2 g in 100 g water
Compound: 2-butyl-1,3-dioxolane-4-hydroxymethyl and 2-butyl-1,3-dioxan-5-ol [BDM]
Miscibility in water (Miscibility in water): not miscible in water; also recorded: Non-miscible

Compound: 2-ethyl-4-hydroxymethyl-1,3-dioxolane and 2-ethyl-1,3-dioxan-5-ol [EDM]
pH after adding EDM ([1]; buffer solution initial pH 3.1): 3.15 | pH at 1 month ([1]; buffer solution initial pH 3.1): 3 | pH after adding EDM [1, 7]: 4.3 | pH at 1 month [1, 7]: 4.2 | pH after adding EDM ([1]; buffer solution initial pH 5.1): 5.15 | pH at 1 month ([1]; buffer solution initial pH 5.1): 5.1 | pH after adding EDM [1, 8]: 6.2 | pH at 1 month [1, 8]: 6.1 | pH after adding EDM [1, 9]: 7.2 | pH at 1 month [1, 9]: 7.1 | pH after adding EDM ([1]; buffer solution initial pH 8.0): 8.0 | pH at 1 month ([1]; buffer solution initial pH 8.0): 8.0 | pH after adding EDM ([1]; buffer solution initial pH 9.0): 9.1 | pH at 1 month ([1]; buffer solution initial pH 9.0): 9.0 | pH after adding EDM [1, 10]: 10.0 | pH at 1 month [1, 10]: 10.0 | pH variations observed ([1]; buffer solutions pH 3 to 10, not significant): approximately 0.1 pH units | EDM mass ([2]; in Apricot kernel oil): >100 g of EDM incorporable into 100 g of oil or ester | EDM mass ([2]; in Arlamol E (PPG-15 Stearyl Ether)): >100 g of EDM incorporable into 100 g of oil or ester | EDM mass ([2]; in Butylene Glycol): >100 g of EDM incorporable into 100 g of oil or ester | EDM mass ([2]; in Castor oil): >100 g of EDM incorporable into 100 g of oil or ester | EDM mass ([2]; in DPPG (Propylene glycol dipelargonate)): >100 g of EDM incorporable into 100 g of oil or ester | EDM mass ([2]; in Glycerine): >100 g of EDM incorporable into 100 g of oil or ester | EDM mass ([2]; in IPM (Isopropyl myristate)): >100 g of EDM incorporable into 100 g of oil or ester | EDM mass ([2]; in Labrafac CC (Caprylic/capric triglyceride)): >100 g of EDM incorporable into 100 g of oil or ester | EDM mass ([2]; in PEG-300): >100 g of EDM incorporable into 100 g of oil or ester | EDM mass ([2]; in Propylene Glycol): >100 g of EDM incorporable into 100 g of oil or ester | EDM mass ([2]; in Tegosoft TN (C12/C15 alkyl benzoate)): >100 g of EDM incorporable into 100 g of oil or ester | EDM mass ([2]; in Water): >100 g of EDM incorporable into 100 g of oil or ester | Miscibility in water (Miscibility in water): Miscible | Mass of solvent to solubilise 1 g of mixture 98% water and 2% active ingredient [3, 11]: 0.9 g | Mass of solvent to solubilise 1 g of mixture 98% water and 2% active ingredient [3, 12]: 1.7 g | Mass of solvent to solubilise 1 g of mixture 98% water and 2% active ingredient [3, 13]: 1 g | Mass of solvent to solubilise 1 g of mixture 98% water and 2% active ingredient ([3]; active ingredient Menthol): 0.7 g | Mass of solvent to solubilise 1 g of mixture 98% water and 2% active ingredient [3, 14]: 2.0 g | Solubility of 1,2-butyl methoxydibenzoylmethane in the solvent [4]: >32 g of filter soluble in 100 g of final solution | Solubility of Benzophenone-3 in the solvent [4]: >40 g of filter soluble in 100 g of final solution | Viscosity variation ([5]; 5% EDM in gels of Blanose 7HF, Jaguar HP 105, Keltrol T, Natrosol 250HX (cell wraps: Small variation)): Small | Viscosity drop ([5]; 5% EDM in gels of Novemer EC-1, Sepigel 305): Drop >30% | Breaking of gels on adding EDM ([5]; 5% EDM, gelling agents of the different families tested): none of the gels formulated is broken | Solubility in Medium-chain triglyceride (MCT) (Solubility in oils): >100 g of solvent solubilised in 100 g of oil or ester | Solubility in Octyldodecanol myristate (ODM) (Solubility in oils): 50 g of solvent solubilised in 100 g of oil or ester | Solubility in Sunflower oil (Solubility in oils): >100 g of solvent solubilised in 100 g of oil or ester

Compound: 2-propyl-4-hydroxymethyl-1,3-dioxolane with 2-propyl-1,3-dioxan-5-ol [PDM]
Miscibility in water (Miscibility in water): Miscible | Solubility of 1,2-butyl methoxydibenzoylmethane in the solvent [4]: 22 g of filter soluble in 100 g of final solution | Solubility of Benzophenone-3 in the solvent [4]: 18 g of filter soluble in 100 g of final solution | Solubility in Medium-chain triglyceride (MCT) (Solubility in oils): >100 g of solvent solubilised in 100 g of oil or ester | Solubility in Octyldodecanol myristate (ODM) (Solubility in oils): 100 g of solvent solubilised in 100 g of oil or ester | Solubility in Sunflower oil (Solubility in oils): >100 g of solvent solubilised in 100 g of oil or ester

Compound: CO[C@H]1CO[C@H]2[C@@H]1OC[C@H]2OC [Arlasolve DMI, Dimethyl Isosorbide, reference compound]
Mass of solvent to solubilise 1 g of mixture 98% water and 2% active ingredient [3, 11]: 2.3 g | Mass of solvent to solubilise 1 g of mixture 98% water and 2% active ingredient [3, 12]: 2.3 g | Mass of solvent to solubilise 1 g of mixture 98% water and 2% active ingredient [3, 13]: 2.2 g | Mass of solvent to solubilise 1 g of mixture 98% water and 2% active ingredient ([3]; active ingredient Menthol): 1.7 g | Mass of solvent to solubilise 1 g of mixture 98% water and 2% active ingredient [3, 14]: 5.0 g

Compound: CC(C)=CCC[C@](C)(O)C1CC=C(C)CC1 (some centres unmarked) [Bisabolol nat., Bisabolol]
Mass of active ingredient (g) [6]: >100 g of active ingredient soluble in 100 ml of EDM

Miscibility in water (Miscibility in water): Miscible
Compound: CCC1(CO)COC(C)OC1 (centres unmarked) [ETP, 2-methyl-5-ethyl-5-hydroxymethyl-1,3-dioxane]
Solubility of 1,2-butyl methoxydibenzoylmethane in the solvent [4]: 5 g of filter soluble in 100 g of final solution | Solubility of Benzophenone-3 in the solvent [4]: 35 g of filter soluble in 100 g of final solution | Solubility in Medium-chain triglyceride (MCT) (Solubility in oils): >100 g of solvent solubilised in 100 g of oil or ester | Solubility in Octyldodecanol myristate (ODM) (Solubility in oils): 100 g of solvent solubilised in 100 g of oil or ester | Solubility in Sunflower oil (Solubility in oils): >100 g of solvent solubilised in 100 g of oil or ester

Compound: CC1CCC(C(C)C)C(O)C1 (centres unmarked) [Menthol]
Mass of active ingredient (g) [6]: >100 g of active ingredient soluble in 100 ml of EDM

Compound: CCCCC(CC)COC(=O)C=Cc1ccc(OC)cc1 (centres unmarked) [Parsol MCX, Ethylhexyl methoxycinnamate]
Mass of active ingredient (g) [6]: >100 g of active ingredient soluble in 100 ml of EDM

Compound: Glycerol formal [reference compound]
Miscibility in water (Miscibility in water): Miscible | Solubility in Medium-chain triglyceride (MCT) (Solubility in oils): <12 g of solvent solubilised in 100 g of oil or ester | Solubility in Octyldodecanol myristate (ODM) (Solubility in oils): <12 g of solvent solubilised in 100 g of oil or ester | Solubility in Sunflower oil (Solubility in oils): 12 g of solvent solubilised in 100 g of oil or ester

Compound: Retinal [Vitamin A]
Mass of active ingredient (g) [6]: >100 g of active ingredient soluble in 100 ml of EDM

Compound: Tocopherol [Vitamin E]
Mass of active ingredient (g) [6]: >100 g of active ingredient soluble in 100 ml of EDM
